Read-outs that look alike come from different tables or passages of the source.
How the values were obtained:
[1] = tested on: EMT-6 syngeneic mouse tumor model (breast cancer); test: Anti-tumor activity, EMT-6 syngeneic mouse tumor model; assay type: in vivo; conditions: for anti-tumor potency, in words: EMT-6 model, 40 mpk; for inhibition in vivo at 40 mg/kg: Mus musculus, EMT6, ip, read-out: TGI (tumor growth inhibition)
Procedure: This example describes in vivo studies that evaluated the anti-cancer efficacy of the disclosed indole compounds in syngeneic mouse tumor models. Mice implanted subcutaneously with four types of cancer cells were treated with test indole compounds or vehicle controls as described below.
A monolayer culture of tumor cells was maintained in vitro in DMEM or RPMI1640 medium supplemented with 10% fetal bovine serum at 37° C. in an atmosphere of 5% CO2. Cells in exponential growth phase were harvested and quantitated by cell counter before tumor inoculation. The cell lines used are described in the table below.
Four subcutaneous syngeneic mouse tumor models were generated by innoculating female BALB/C or C57BL/6 mice with cancer cells at their right lower or front flank as detailed in the table below:
Each mouse was inoculated subcutaneously with tumor cells in 0.1 mL of PBS. Treatments were started when the mean tumor size reached approximately 80-120 mm^3 (around 100 mm^3). The administration of the indole compounds and the animal number in each study group are shown in the study design. The date of tumor cell inoculation was denoted as day 0.
The indole compounds were dissolved in DMSO at the final concentration of 26.7 mg/ml and stored at room temperature.
Randomization of animals was started when the mean tumor size reached approximately 90 mm^3 to form the mouse study groups. The randomization was performed based on “Matched distribution” method using the multi-task method (StudyDirector™ software, version 3.1.399.19)/randomized block design. The mouse groups (ten in each group) were treated with vehicle (DMSO) or the indole compounds at a dose of 40 mg/kg by i.p. injection, QD for 28 days or longer.
After tumor cell inoculation, the mice were checked daily for morbidity and mortality. During routine monitoring, the mice were checked for tumor growth and any effects of the treatment on behavior such as mobility, food and water consumption, body weight gain/loss (body weights were measured twice per week after randomization), eye/hair matting, and any other abnormalities. Mortality and observed clinical signs were recorded for individual mice in detail.
Tumor volumes were measured twice per week in two dimensions using a caliper, and the volume was expressed in mm^3 using the formula: V=(L×W×W)/2, where V is tumor volume, L is tumor length (the longest tumor dimension) and W is tumor width (the longest tumor dimension perpendicular to L). Dosing as well as tumor and body weight measurements was conducted in a Laminar Flow Cabinet. The body weights and tumor volumes were measured by using StudyDirector™ software (version 3.1.399.19). Dosing Holiday
Tumor growth inhibition percentage (TGI %) is an indicator for antitumor activity of a drug compound, and expressed as: TGI (%)=100×(1−T/C), where T and C are the mean tumor volume (or weight) of the treated and control groups, respectively, on a given day. Statistical analysis of the difference in mean tumor volume (MTV) among the groups was conducted using the data collected on the day when the MTV of the vehicle group reached the humane endpoints, so that TGI could be derived for all or most mice enrolled in the study.
In Studies 1 and 3, the anti-tumor activity of ARI-001 in parallel with ARI-002 at 160 mg/kg (mpk), and the anti-tumor activity of ARI-087 in parallel with ARI-002 at 40 mpk were assessed using the EMT-6, Pan02, A20, and LL/2 models. Because EMT-6 provides a fast-growing model that enables relatively quick differentiation of performance between compounds, this syngeneic mouse tumor model was chosen for the other studies. In Study 2, the anti-tumor activity of ARI-002 was compared with that of ARI-004 at 10, 40, and 80 mpk. In Study 4, the anti-tumor activity of ARI-087 was compared with that of ARI-140. In Study 5, the anti-tumor activity of ARI-087 was evaluated in parallel with ARI-143 and ARI-149 at 40 mpk. […]

[2] = tested on: CYP1A1 in human HepG2 cells; test: EROD assay (7-ethoxy-resorufin-O-deethylase), human HepG2 cells; assay type: cell-based; design: key to activity group based on EC50 values, in the order of increasing activity: (1) active; (2) more active; (3) most active; conditions: for EC50: EROD assay, 20 hours treatment; for EC50 / activity in the human EROD assay compared to ARI-001 / ARI-002, in words: human HepG2 cells; for activity group based on EC50 values, in the order of increasing activity: human EROD assay, oxadiazole derivatives of ITE
Procedure: (§1) CYP1A1 induction is under the control of the AhR signaling pathway. This Example describes an in vitro assay (7-ethoxy-resorufin-O-deethylase (EROD) assay) that evaluated the AhR modulating activities of the indole compounds described herein. In this assay, the indole compounds were incubated with human HepG2 cells or mouse Hepal-6 cells. The activity of CYP1A1 in the cells was measured by the conversion of substrate 7-ethoxyresorufin, with the readout being a fluorescence signal associated with the conversion product. The EC50 values of the indole compounds as well as the maximum […] induced by them in the assay were determined.
(§2) Human HepG2 cells were obtained from Sigma Aldrich (Catalog 85011430-1VL). Mouse Hepal-6 cells also were obtained from Sigma Aldrich (Catalog 92110305-1V).
(§3) Human HepG2 and Mouse Hepal-6 cells were grown to 60-80% confluency in tissue culture flasks, lifted with non-enzymatic cell dissociation solution (cell stripper), seeded in a 384-well plate at 5,000 cells per well, treated with the test compounds, and incubated for 20 hours overnight at 37° C. The treatment medium was removed and a solution of substrate 7-ethoxyresorufin (ETX) was added to initiate the reaction. The plate was incubated at 37° C. for 30 minutes. The reaction was subsequently terminated by adding tempered methanol. Fluorescent emission was measured at 590 nm with excitation at 530 nm in a FLEXSTATION III instrument (Molecular Devices).

[3] = tested on: CYP1A1 in mouse Hepal-6 cells; test: EROD assay (7-ethoxy-resorufin-O-deethylase), mouse Hepa1-6 cells; assay type: cell-based; conditions: for EC50: EROD assay, 20 hours treatment
Procedure: as §1, §2, §3

[4] = In vivo pharmacokinetic study in Sprague-Dawley rats; conditions: rat; for bioavailability: Sprague-Dawley, plasma, po, 10 mg/kg, PO (10 mg/kg) vs IV (2 mg/kg), read-out: F % (bioavailability); for % of Hepatisc Blood Flow: IV (2 mg/kg)
Procedure: This example describes pharmacokinetic (PK) studies of the various indole compounds described herein in rats, a rodent species widely used for pre-clinical toxicology evaluation. In the present studies, the test compounds were given to groups of Sprague-Dawley rats (N=3 in each group) intravenously (IV) at 2 mg/kg or orally (PO) at 10 mg/kg. IV doses were formulated in DMSO, while PO doses were formulated in a 50/50 mixture of PEG400 and Tween 80. Blood samples were collected at pre-dose and over a period of 24 hours post-dose. Plasma concentrations of the indole compounds were determined by HPLC.

[5] = 720 h, Study 5, EMT-6, 40 mpk i.p. QD, D30
[6] = 624 h, Study 6, EMT-6, 40 mpk i.p. QD, D26

SMILES | anti-tumor potency, in words [1] | activity in the human EROD assay compared to ARI-001 / ARI-002, in words [2] | activity group based on EC50 values, in the order of increasing activity [2] | activity in the mouse EROD assay, in words [3] | also measured
NCc1nc(-c2csc(C(=O)c3c[nH]c4c(F)cccc34)n2)no1 [ARI-146, (4-(5-(aminomethyl)-1,2,4-oxadiazol-3-yl)thiazol-2-yl)(7-fluoro-1H-indol-3-yl)methanone] | less anti-tumor potency than ARI-087 | – | – | – | inhibition in vivo at 40 mg/kg [1, 5]: 23.2%
CCC(=O)c1csc(C(=O)c2c[nH]c3cccc(F)c23)n1 [ARI-142, 1-(2-(4-fluoro-1H-indole-3-carbonyl)thiazol-4-yl)propan-1-one] | – | less active than ARI-002 | – | – | EC50 [2]: 64.8 nM; EC50 [3]: 12.8 nM
Nc1nnc(-c2csc(C(=O)c3c[nH]c4ccc(F)cc34)n2)o1 [ARI-148, (4-(5-amino-1,3,4-oxadiazol-2-yl)thiazol-2-yl)(5-fluoro-1H-indol-3-yl)methanone] | less anti-tumor potency than ARI-087 | significantly more (about 4 to 900 times more) active than ARI-001 | more active | – | inhibition in vivo at 40 mg/kg [1, 5]: 4.8%
CCC(=O)c1csc(C(=O)c2c[nH]c3c(F)cccc23)n1 [ARI-140, 1-(2-(7-fluoro-1H-indole-3-carbonyl)thiazol-4-yl)propan-1-one] | – | – | – | less active than ARI-002 | EC50 [2]: 0.7 nM; EC50 [3]: 19.5 nM; inhibition in vivo at 40 mg/kg ([1]; 672 h, Study 4, EMT-6, 40 mpk i.p. QD, D28): 30.6%
Nc1nnc(-c2csc(C(=O)c3c[nH]c4cc(Cl)c(Cl)cc34)n2)o1 [ARI-120, (4-(5-amino-1,3,4-oxadiazol-2-yl)thiazol-2-yl)(5,6-dichloro-1H-indol-3-yl)methanone] | less anti-tumor potency than ARI-087 | significantly more (about 4 to 900 times more) active than ARI-001 | most active | most active among the tested oxadiazole compounds | inhibition in vivo at 40 mg/kg [1, 5]: 27.2%
COC(=O)c1csc(C(=O)c2c[nH]c3ccc(F)cc23)n1 [ARI-066, methyl 2-(5-fluoro-1H-indole-3-carbonyl)thiazole-4-carboxylate] | – | less active | – | less active | –
Cc1nnc(-c2csc(C(=O)c3c[nH]c4ccccc34)n2)o1 [ARI-060, (1H-indol-3-yl)(4-(5-methyl-1,3,4-oxadiazol-2-yl)thiazol-2-yl)methanone] | – | significantly more (about 4 to 900 times more) active than ARI-001 | active | – | –
Cc1noc(-c2csc(C(=O)c3c[nH]c4ccccc34)n2)n1 [ARI-031, (1H-indol-3-yl)(4-(3-methyl-1,2,4-oxadiazol-5-yl)thiazol-2-yl)methanone] | – | significantly more (about 4 to 900 times more) active than ARI-001 | active | – | bioavailability [4]: 6.3%; IV PK profile compared to ARI-001, ARI-002, and ARI-004, in words ([4]; IV): improved IV PK profiles; % of Hepatisc Blood Flow [4]: 103%
NCc1nnc(-c2csc(C(=O)c3c[nH]c4c(F)cccc34)n2)o1 [ARI-145, (4-(5-(aminomethyl)-1,3,4-oxadiazol-2-yl)thiazol-2-yl)(7-fluoro-1H-indol-3-yl)methanone] | less anti-tumor potency than ARI-087 | significantly more (about 4 to 900 times more) active than ARI-001 | more active | most active among the tested oxadiazole compounds | inhibition in vivo at 40 mg/kg [1, 5]: 10.5%
Nc1nnc(-c2csc(C(=O)c3c[nH]c4ccccc34)n2)s1 [ARI-090, (4-(5-amino-1,3,4-thiadiazol-2-yl)thiazol-2-yl)(1H-indol-3-yl)methanone] | less anti-tumor potency than ARI-087 | significantly more (about 4 to 900 times more) active than ARI-001 | more active | – | inhibition in vivo at 40 mg/kg [1, 6]: 30.1%
CNC(=O)c1csc(C(=O)c2c[nH]c3ccc(Cl)cc23)n1 [ARI-049, 2-(5-chloro-1H-indole-3-carbonyl)-N-methylthiazole-4-carboxamide] | – | less active | – | less active | –
O=C(c1nc(-c2nnco2)cs1)c1c[nH]c2ccccc12 [ARI-056, (4-(1,3,4-oxadiazol-2-yl)thiazol-2-yl)(1H-indol-3-yl)methanone] | less anti-tumor potency than ARI-087 | significantly more (about 4 to 900 times more) active than ARI-001 | active | – | inhibition in vivo at 40 mg/kg [1, 6]: 34.3%
CCC(=O)c1csc(C(=O)c2c[nH]c3ccc(Cl)cc23)n1 [ARI-067, 1-(2-(5-chloro-1H-indole-3-carbonyl)thiazol-4-yl)propan-1-one] | – | less active | – | less active | bioavailability [4]: 3.5%; % of Hepatisc Blood Flow [4]: 350%
COC(=O)c1csc(C(=O)c2c[nH]c3ccc(Cl)cc23)n1 [ARI-055, methyl 2-(5-chloro-1H-indole-3-carbonyl)thiazole-4-carboxylate] | – | less active | – | less active | –
CNC(=O)c1csc(C(=O)c2c[nH]c3ccc(F)cc23)n1 [ARI-065, 2-(5-fluoro-1H-indole-3-carbonyl)-N-methylthiazole-4-carboxamide] | – | less active | – | less active | –
